Data on four compounds can be found in patent US7226915B2, “Diaminopyrroloquinazolines compounds as protein tyrosine phosphatase inhibitors” (Hoffmann-La Roche Inc., priority 2003, dated 2007).

Molecules are shown by their SMILES. Counter-ions that a name gives are not always drawn.

What is called IC50 is the concentration that inhibits the measured activity by half.

The test deals with T1, Human PTP1B (1-321) (Homo sapiens, UniProt P18031).
T1 construct: Human PTP1B (1-321) was cloned from a human cDNA library; made in house; host or cells: E. coli
T1 sequence (P18031 1-321): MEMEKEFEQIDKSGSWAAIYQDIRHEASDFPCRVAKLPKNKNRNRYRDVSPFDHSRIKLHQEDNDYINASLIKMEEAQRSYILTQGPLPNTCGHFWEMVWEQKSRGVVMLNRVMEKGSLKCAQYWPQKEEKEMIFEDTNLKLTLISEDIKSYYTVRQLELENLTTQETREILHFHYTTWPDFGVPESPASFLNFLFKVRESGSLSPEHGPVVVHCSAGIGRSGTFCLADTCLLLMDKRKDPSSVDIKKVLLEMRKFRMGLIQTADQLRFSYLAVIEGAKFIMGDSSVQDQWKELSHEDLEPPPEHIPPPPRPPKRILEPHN
Description: In vitro inhibition of PTP1B (PTPase assay). The class given is biochemical. As to conditions: one of two methods: phosphopeptide substrate TRDI(pY)E with Malachite Green, or DiFMUP fluorescence; pH 6.2; read-out: IC50 (PTP1B inhibitory activity). As to the method: Human PTP1B (1-321) was cloned from a human cDNA library using conventional molecular biology techniques. The cDNA sequence was identical to the published human PTP1B sequence (Accession number M33689). The protein was expressed and purified from E. coli as described by Barford D. et. al J. Mol Biol (1994) 239, 726–730.
The measurement of PTPase activity was carried out using one of two methods:
The first method for the measurement of PTP1B inhibitory activity a tyrosine phosphorylated peptide based on the amino acid sequence of insulin receptor tyrosine autophosphorylation site 1146 (TRDI(pY)E) was used as substrate. The reaction conditions were as follows:
PTP1B (0.5–2 nM) was incubated with compound for 15 min in buffer containing 37.5 mM Bis-Tris buffer pH 6.2, 140 mMNaCl, 0.05% BSA and 2 mM DTT. The reaction was started by the addition of 50 μM substrate. After 20 min at room temperature (22–25° C.), the reaction was stopped with KOH and the amount of free phosphate measured using Malachite Green as previously described (Harder et al. 1994 Biochem J. 298; 395).
The second method was used for the measurement of general PTPase inhibitory activity across a panel of PTPases the substrate (6,8-difluoro-4-methylumbelliferyl phosphate (DiFMUP; from Molecular Probes) was used at the Km for each enzyme. The buffer conditions were identical as in the Malachite Green assay. The reaction was stopped with KOH. In this case the dephosphoryated product becomes fluorescent and the fluorescense read (Excitiation:360 mM/Emmission: 460 nM).
On to `Cc1ccc(-c2cc3nc(N)nc(NCCO)c3c3ccn(C)c23)s1` [Example 2, 2-[3-Amino-7-methyl-6-(5-methyl-thiophen-2-yl)-7H-pyrrolo[3,2-f]quinazolin-1-ylamino]-ethanol trifluoro-acetic acid salt], for which the IC50 is 7.1 µM.

With `CN(C)c1nc(N)nc2cc(-c3ccccc3C(F)(F)F)c3c(ccn3C)c12` [Example 4, 7,N1,N1-Trimethyl-6-(2-trifluoromethyl-phenyl)-7H-pyrrolo[3,2-f]quinazoline-1,3-diamine trifluoro-acetic acid salt], the IC50 was 9.47 µM.

As for `Cn1ccc2c3c(NCCCO)nc(N)nc3cc(-c3ccccc3C(F)(F)F)c21` [Example 6, 3-[3-Amino-7-methyl-6-(2-trifluoromethyl-phenyl)-7H-pyrrolo[3,2-f]quinazolin-1-ylamino]-propan-1-ol trifluoro-acetic acid salt], the half-inhibitory concentration (IC50) turned out to be 10.2 µM.

Consider `Nc1nc(NCCO)c2c(cc(-c3ccccc3C(F)(F)F)c3c2ccn3CCO)n1` [Example 8, 2-[3-Amino-7-(2-hydroxy-ethyl)-6-(2-trifluoromethyl-phenyl)-7H-pyrrolo[3,2-f]quinazolin-1-ylamino]-ethanol trifluoro-acetic acid salt], for which the concentration for half-maximal inhibition (IC50) turned out to be 11.3 µM.
